# In US20030225081A1, “Pyridazinones and triazinones and medicinal use thereof” (priority 2000, published 2003):
# pIC50: −log10 of the molar value.
# What was measured:
# AMPA receptor = test: Suppressing action to calcium influx into nerve cells induced by AMPA; assay type: cell-based; conditions: Fura2-AM, stimulation with 2 μM AMPA, primary culture of rat embryo cerebral cortex nerve cells, 1 μM MK-801
# Procedure, shortened: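 Rat E18 cortical neurons grown on astrocyte feeder layers for 8–10 days or more, with 1 μM MK-801 in the medium. Cells were Fura2-AM-loaded for 1 h, then stimulated with 2 μM AMPA in Tyrode containing 1 μM MK-801. Calcium influx was read as the 340/380 nm excitation fluorescence change.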
# [1] = test system: convulsion induced by AMPA; test: Anticonvulsant action induced by AMPA; assay type: in vivo, mice of ddy strain; conditions: 25 mg/kg orally, mice; AMPA injected into lateral ventricle 30 minutes or 1 hour after administration
# Protocol: Anticonvulsant Action Induced by AMPA A test compound was suspended in a 0.5% methyl cellulose solution or in sesame oil and was orally administered (25 mg/kg) to male mice of ddy strain. After 30 minutes or 1 hour from the oral administration, AMPA was continuously injected ([…]/5 μl/minute/mouse) into lateral ventricle to induce the convulsions. The effect was judged by a time-extending action until the convulsion takes place by a continuous injection of AMPA.
Compound,pIC50 (AMPA receptor),anticonvulsant action (time-extending action until the convulsion takes place) [1]
"N#Cc1ccccc1-n1nc(-c2ccccn2)cc(-c2cccnc2)c1=O [Example 45, 2-(2-Cyanophenyl)-4-(3-pyridyl)-6-(2-pyridyl)-3 (2H)-pyridazinone]",6.70,significantly inhibited the convulsion induced by AMPA
"O=c1c(-c2cccnc2)cc(-c2ccccn2)nn1-c1ccccc1 [Example 59, 2-Phenyl-4-(3-pyridyl)-6-(2-pyridyl)-3 (2H)-pyridazinone]",6.22,significantly inhibited the convulsion induced by AMPA
"O=C1N(c2ccccc2)CC(c2ccccn2)=NN1c1ccccc1Br [Example 88, 2-(2-Bromophenyl)-4-phenyl-6-(2-pyridyl)-4,5-dihydro-1,2,4-triazin-3 (2H)-one]",7.00,significantly inhibited the convulsion induced by AMPA
"COc1ccccc1C1=NN(c2ccccc2C#N)C(=O)N(c2ccccc2)C1 [Example 97, 2-(2-Cyanophenyl)-6-(2-methoxyphenyl)-4-phenyl-4,5-dihydro-1,2,4-triazin-3 (2H)-one]",6.15,significantly inhibited the convulsion induced by AMPA
"N#Cc1ccccc1N1N=C(c2ccccn2)CN(c2ccccc2)C1=O [Example 100, 2-(2-Cyanophenyl)-4-phenyl-6-(2-pyridyl)-4,5-dihydro-1,2,4-triazin-3 (2H)-one]",7.30,significantly inhibited the convulsion induced by AMPA
"N#Cc1ccccc1N1N=C(c2ccccn2)CN(c2ccccn2)C1=O [Example 102, 2-(2-Cyanophenyl)-6-(2-pyridyl)-4-(2-pyridyl)-4,5-dihydro-1,2,4-triazin-3 (2H)-one]",7.00,significantly inhibited the convulsion induced by AMPA
"N#Cc1ccccc1N1N=C(c2ccccn2)CN(c2cccnc2)C1=O [Example 103, 2-(2-Cyanophenyl)-6-(2-pyridyl)-4-(3-pyridyl)-4,5-dihydro-1,2,4-triazin-3 (2H)-one]",7.00,significantly inhibited the convulsion induced by AMPA
